Here are results for four compounds from PMC11969548 (2025).

Each structure is given as a SMILES string.

The test system of test [1] is P27 (DD aptagel) (DNA, aptamer) CGACCGAGGGTACCGCAATAGTACTTA/TTGTTCGCCTATTGTGGGTCGGGTCG
As to the kind of experiment: angular SPR of hydrogel film. The conditions noted are these: PBS, 2 mM Mg2+, 200-fold diluted rat plasma, 37 °C.

Test [2] has as its system Full (full-length parent aptamer, aptagel) (DNA, aptamer) CGACCGAGGGTACCGCAATAGTACTTATTGTTCGCCTATTGTGGGTCGGGTCG
Briefly: angular SPR and QCM-D of hydrogel film. The conditions noted are these: PBS, 2 mM Mg2+; 37 °C; 1 mM vancomycin; 1 mM aptamer; partly irreversible.

Test [3] deals with P27 (monolayer) (DNA, aptamer) CGACCGAGGGTACCGCAATAGTACTTA/TTGTTCGCCTATTGTGGGTCGGGTCG
Briefly: SPR, dissociation phase fit. Particulars: PBS, 2 mM Mg2+, pH 7.4, 37 °C, split 2 in solution, independent of analyte concentration.

Test [4] concerns P27 (DD aptagel) (DNA, aptamer) CGACCGAGGGTACCGCAATAGTACTTA/TTGTTCGCCTATTGTGGGTCGGGTCG
As to the kind of experiment: angular SPR of hydrogel film, dissociation phase fit. Particulars: PBS, 2 mM Mg2+; pH 7.4, 37 °C; vancomycin below 50 µM; rises to 0.7 above 100 µM; apparent.

Test [5] concerns P27.i (monolayer) (DNA, aptamer) CGACCGAGGGTACCGCAATAGTACTTA/TTGTTCGCCTATTGCGGGTCGGGTCG
As to the kind of experiment: SPR, dissociation phase fit. The conditions noted are these: PBS, 2 mM Mg2+, pH 7.4, 37 °C, split 2 in solution, independent of analyte concentration.

Test [6] deals with P27 (MM aptagel) (DNA, aptamer) CGACCGAGGGTACCGCAATAGTACTTA/TTGTTCGCCTATTGTGGGTCGGGTCG
As to the kind of experiment: angular SPR and QCM-D of hydrogel film. Particulars: PBS, 2 mM Mg2+; 37 °C; 1 mM vancomycin; 1 mM aptamer; reversible; smallest response.

Test [7] deals with P27 (MD aptagel) (DNA, aptamer) CGACCGAGGGTACCGCAATAGTACTTA/TTGTTCGCCTATTGTGGGTCGGGTCG
Briefly: angular SPR and QCM-D of hydrogel film. Particulars: PBS, 2 mM Mg2+; 37 °C; 1 mM vancomycin; 1 mM aptamer; reversible.

For test [8], the system named is PolyA (PA) aptagel (DNA, single strand) AAAAAAAAAAAAAAAAAAAAAAAAAAA
As to the kind of experiment: angular SPR of hydrogel film. The conditions noted are these: PBS, 2 mM Mg2+; 37 °C; 1 mM vancomycin; 3 mM poly A, [ene]/[SH] 4.

Setting [9] is: concentration matching refractive index of 10 µM vancomycin.

For `CC1(C)S[C@@H]2[C@H](NC(=O)[C@H](N)c3ccccc3)C(=O)N2[C@H]1C(=O)O`, the binding entry in test [1] (setting [9]) was “no”.
For the compound `CN[C@H](CC(C)C)C(=O)N[C@H]1C(=O)N[C@@H](CC(N)=O)C(=O)N[C@H]2C(=O)N[C@H]3C(=O)N[C@H](C(=O)N[C@H](C(=O)O)c4cc(O)cc(O)c4-c4cc3ccc4O)[C@H](O)c3ccc(c(Cl)c3)Oc3cc2cc(c3O[C@@H]2O[C@H](CO)[C@@H](O)[C@H](O)[C@H]2O[C@H]2C[C@](C)(N)[C@H](O)[C@H](C)O2)Oc2ccc(cc2Cl)[C@H]1O`, the binding result in test [2] is given as “yes”; in test [6] it was “weak”; in test [7] it was “yes”; in test [8] it was “no”. The koff in test [3] was 0.2 min⁻¹; in test [4], ~ 0.2 min^-1; in test [5], ~ 0.16 min^-1.
`CO[C@H]1/C=C/O[C@@]2(C)Oc3c(C)c(O)c4c(O)c(c(/C=N/N5CCN(C)CC5)c(O)c4c3C2=O)NC(=O)/C(C)=C\C=C\[C@H](C)[C@H](O)[C@@H](C)[C@@H](O)[C@@H](C)[C@H](OC(C)=O)[C@@H]1C`: the binding result in test [1] (setting [9]) is recorded as “no”.
Take `OC[C@H]1OC(O)[C@H](O)[C@@H](O)[C@@H]1O` (stereo partly shown): the binding entry in test [1] (80 µM glucose) was “no”.
